From US5073571A, “Method of inhibiting virus” (priority 1989, dated 1991)

Key:
MoMLV = MoMLV replication: LZ1 virus titer by histochemical staining of NIH 3T3 cells for β-galactosidase; assay type: cell-based, Maloney murine leukemia virus; settings: up to 100 μM, 2 day treatment of LZ1 cells
From the text: Panel A -Schematic representation of the MoMLV assay system. […] This cell produces infectious, replication defective virus (designated (LZ1) which carries the LacZ gene. When NIH3T3 cells are exposed to supernatant taken from the LZ1 virus producing cells, they are initially infected and their progeny are detectable by histochemical staining for β-galactosidase. Thus, the titer of the virus produced by the LZ1 cells after treatment with the various agents, can be readily determined by counting the number of blue NIH3T3 cells. Replication competent MoMLV is not detected using this assay system since the lacZ gene product is not present. Panel B - The effect of 6-oxamyristic acid and 13-oxamyristic acid on LZ1 virus production. The results represent the mean (+1 standard deviation) of three independent tests each done in duplicate. Panel C - Number of viable LZ1 producing cells at the end of a 2 day treatment with analog as measured by trypan blue exclusion. The results of duplicate assays were averaged. Panel D - The effects of analog treatment on incorporation of [^3 H]leucine. Cells in duplicate wells were pulse labeled for 4 h following three days of incubation with analog or ethanol (0.1%). Duplicate assays were performed. The results were averaged and expressed as a percentage of the results obtained from untreated cells.
Assay of the Effects of Analogs on the Replication of Maloney Murine Leukemia Virus. The LZ1 titer assay was developed for rapid histochemical quantitation of infectious virus production. In brief, the LZ1 virus-producing cell line was derived by Sanes et al., EMBO J. 5, 3133-3142 (1986), from the .PSI.-2 cell line. .PSI.-2-cells are NIH 3T3 cells that contain a stably integrated packaging mutant (pMOV-.PSI.-) of MoMLV. This mutant has a deletion of 350 nucleotides between the 5' donor splice site for env and the initiator methionine codon for Pr65^gag [Mann et al., Cell 33, 153-159 (1983)]. The LZ1 cell line is a subclone of .PSI.-2 cells that were co-transfectd with pM-MuLV-SV-LacZ [Sanes et al., supra.]and pSVTK neoB and then selected for G418 (Geneticin®) antibiotic resistance and production of defective MoMLV containing the E. coli β-galactosidase gene [Sanes et al., supra.]. The recombinant virus produced by LZ1 cells is capable of primary infection of NIH 3T3 cells but is replication defective [Sanes et al., surpa.]. Infected NIH 3T3 containing the lac-Z gene can be identified by histochemical staining for β-galactosidase activity.
To assess the effects of analog treatment on MoMLV replication, 1 × 10^5 LZ1 producing cells were added to each well of a 24-well tissue culture plate in 1 mL of Dulbecco's Modified Eagle's medium (DME) containing calf serum (final concentration =10%), penicillin (100 IU/mL), streptomycin (100 μg/mL) with or without analog (10-100 μM). After 24 h, the media was removed and fresh serum-containing media ±analog was added. The next day (48 hours after plating), the virus containing supernatant was removed and passed through a 0.2 μm filter. Various size aliquots (25-100 μL of the 1 mL filtrate) were added to 1 × 10^4 NIH 3T3 cells contained in 1 mL of DME/10% calf serum/penicillin/streptomycin. These indicator cells had been plated 24 h earlier in 24 well tissue culture plates. Polybrene (Sigma) was added at the same time as the filtrate so that its final concentration was 10 μg/mL. […]

H9 cells = experiment: Toxicity in HIV-1 infected H9 cells: viable cell count by trypan blue exclusion; assay type: cell-based, human
Experimental: Media was changed every other day. The effect of these compounds on virus production was determined by measuring the reverse transcriptase (RT) activity in samples of the cell culture supernatants. […] Negative controls consisted of no additions or 0.1ethanol. The results of duplicate assays were averaged. Panel B -Concentration-dependent effects of 13-oxamyristic acid on HIV-1 replication as measured by RT activity (percent of untreated control) and the presence of p24 antigen (ng/ml determined by ELISA). Error bars indicate the S.E.M. of assays done in triplicate. Panel C - The effect of 13-oxamyristic acid on syncytia formation using an arbitrary scale described under Materials and Methods, Example 16, below. Panel D - Toxicity of 13-oxamyristic acid determined by viable cell count (trypan blue exclusion), as well as by [^3 H]thymidine and [^3 H]leucine labeling (see under Materials and Methods, Example 16, below). The incorporation of these radiolabeled compounds was determined in the total cell population contained in a well after 10 days of treatment with the analog. Duplicate assays were performed and the results averaged.
Toxicity Studies. These analyses were conducted for both assay systems. Cell survival was determined by trypan-blue exclusion. The number of unstained cells/mL in the treated cultures was divided by the number of unstained cells/mL in the untreated control cultures and expressed as percent control. Protein synthesis was measured at the end of the treatment periods by metabolic labeling for 4 hrs with L-[4,5^3 H(N)]-leucine (2 μCi/mL media, specific activity =140 Ci/mmol). All cells contained in a given well of a 24 well plate were recovered by scraping, the protein precipitated by TCA (final concentration =10%) and the solution subsequently incubated at 100° C. for 5 min prior to passage over glass fiber filters (Whatman). In the case of the H-9 assay, treated or untreated cells were pulsed labeled at the conclusion of the 10 day incubation. […] DNA synthesis was assessed on day 10 of the H9 assay. […]

**Q.** How did the “effect on MoMLV replication” value (MoMLV) turn out when `COCCCCCCCCCCCC(=O)O` [13-oxamyristate, 12-(Methoxy)dodecanoic acid] was run?
**A.** The value was “no effect on virus replication”.

**Q.** And the “viable cell count in HIV-1 infected H9 cultures relative to untreated controls” value (H9 cells; 20 to 40 μM, 10 day treatment)?
**A.** Its value is “equivalent to that of untreated controls”.

**Q.** What about the “viable cell count in HIV-1 infected H9 cultures” value (H9 cells; 10 day treatment, trypan blue exclusion) of the same compound?
**A.** The value was “an increase in viable cell count was observed”.

**Q.** What about the “direct toxicity to the cells” value (H9 cells; HIV-1 infected H9 cells, suggested by viable cell number) of the same compound?
**A.** The value was “not directly toxic to the cells”.
